Here are results for 15 molecules from ChEMBL document CHEMBL6087397, “H2S-releasing oridonin derivatives with improved antitumor activity by inhibiting the PI3K/AKT pathway” (Bioorg Med Chem, 2024).

Where only a bound is given, the exact number is not on record here.

The subject of one assay is A549. The experiment in a line: Antiproliferative activity against human A549 cells assessed as inhibition of cell proliferation incubated for 48 hrs by CCK-8 assay. The format is functional, cell-based. The settings on record: A549, 48 h.
For another assay, the system named is MCF7. Put plainly: Antiproliferative activity against human MCF7 cells assessed as inhibition of cell proliferation incubated for 48 hrs by CCK-8 assay. The following applies: MCF7, 48 h. The format is functional, cell-based.

In the case of `C=C1C(=O)[C@]23[C@H](OC(=O)CCCC(=O)OCCCOC(=O)c4ccc(N=C=S)cc4)[C@H]1CC[C@H]2[C@@]12CO[C@]3(O)[C@@H](O)[C@@H]1C(C)(C)CCC2=O`, the IC50 with A549 is 23.2 µM; in the assay on MCF7, 8.43 µM.

`C=C1C(=O)[C@]23[C@H](OC(=O)CCC(=O)OCCCOC(=O)c4ccc(N=C=S)cc4)[C@H]1CC[C@H]2[C@@]12CO[C@]3(O)[C@@H](O)[C@@H]1C(C)(C)CC[C@@H]2OC(C)=O`: the results for the half-maximal inhibitory concentration (IC50) with A549 and in the assay with MCF7 were 24.9 µM and 8.45 µM, respectively.

As for `O=c1[nH]cc(F)c(=O)[nH]1` [FLUOROURACIL], the results for the IC50 with A549 and with MCF7 were 11.9 µM and 25.1 µM, respectively.

For the molecule `C=C1C(=O)[C@]23[C@H](OC(=O)CCC(=O)OCCCCOC(=O)c4ccc(N=C=S)cc4)[C@H]1CC[C@H]2[C@@]12CO[C@]3(O)[C@@H](O)[C@@H]1C(C)(C)CCC2=O`, the IC50 came out at 26.6 µM with A549 and 8.08 µM in the assay on MCF7.

With `C=C1C(=O)[C@]23[C@H](OC(=O)CCC(=O)OCC#CCOC(=O)c4ccc(N=C=S)cc4)[C@H]1CC[C@H]2[C@@]12CO[C@]3(O)[C@@H](O)[C@@H]1C(C)(C)CCC2=O`, the IC50 in the assay on A549 is > 40 µM; in the assay with MCF7 it was 9.93 µM.

Consider `O=c1nc(-c2ccc(O)cc2)ss1`, for which the IC50 in the assay on A549 and in the assay with MCF7 was > 40 µM throughout.

As to `C=C1C(=O)[C@]23[C@H](OC(=O)CCC(=O)OCCCOC(=O)c4ccc(N=C=S)cc4)[C@H]1CC[C@H]2[C@@]12CO[C@]3(O)[C@@H](O)[C@@H]1C(C)(C)CC[C@@H]2O`, the IC50 is 36.5 µM in the assay with A549 and > 40 µM in the assay with MCF7.

`C=C1C(=O)[C@]23[C@H](OC(=O)CCC(=O)OCCOC(=O)c4ccc(N=C=S)cc4)[C@H]1CC[C@H]2[C@@]12CO[C@]3(O)[C@@H](O)[C@@H]1C(C)(C)CC[C@@H]2OC(C)=O`: the IC50 with A549 is 21.2 µM; with MCF7, 8.8 µM.

Turning to `C=C1C(=O)[C@]23[C@H](OC(=O)CCCC(=O)OCc4ccc(-c5nc(=O)ss5)cc4)[C@H]1CC[C@H]2[C@@]12CO[C@]3(O)[C@@H](O)[C@@H]1C(C)(C)CC[C@@H]2O`, the IC50 in the assay with A549 and with MCF7 was > 40 µM in each case.

Regarding `C=C1C(=O)[C@]23[C@H](OC(=O)CCC(=O)Oc4ccc(-c5nc(=O)ss5)cc4)[C@H]1CC[C@H]2[C@@]12CO[C@]3(O)[C@@H](O)[C@@H]1C(C)(C)CC[C@@H]2O`, the values for the IC50 with A549 and with MCF7 were 24.2 µM and > 40 µM, respectively.

Take `C=C1C(=O)[C@]23[C@H](OC(=O)CCCC(=O)OCCOC(=O)c4ccc(N=C=S)cc4)[C@H]1CC[C@H]2[C@@]12CO[C@]3(O)[C@@H](O)[C@@H]1C(C)(C)CC[C@@H]2O`: the concentration for half-maximal inhibition (IC50) with A549 and in the assay with MCF7 was > 40 µM in each case.

For the molecule `C=C1C(=O)[C@]23[C@H](OC(=O)CCC(=O)Oc4ccc(-c5nc(=O)ss5)cc4)[C@H]1CC[C@H]2[C@@]12CO[C@]3(O)[C@@H](O)[C@@H]1C(C)(C)CC[C@@H]2OC(C)=O`, the IC50 was 15.2 µM with A549 and 15.4 µM in the assay on MCF7.

`C=C1C(=O)[C@]23[C@H](OC(=O)CCC(=O)Oc4ccc(-c5nc(=O)ss5)cc4)[C@H]1CC[C@H]2[C@@]12CO[C@]3(O)[C@@H](O)[C@@H]1C(C)(C)CCC2=O`: the IC50 in the assay with A549 turned out to be 18.3 µM; in the assay on MCF7, 19.1 µM.

In the case of `C=C1C(=O)[C@]23[C@H](OC(=O)CCCC(=O)OCCCOC(=O)c4ccc(N=C=S)cc4)[C@H]1CC[C@H]2[C@@]12CO[C@]3(O)[C@@H](O)[C@@H]1C(C)(C)CC[C@@H]2O`, the IC50 in the assay with A549 and in the assay with MCF7 was > 40 µM throughout.

Turning to `C=C1C(=O)[C@]23[C@H](OC(=O)CCC(=O)OCCOC(=O)c4ccc(N=C=S)cc4)[C@H]1CC[C@H]2[C@@]12CO[C@]3(O)[C@@H](O)[C@@H]1C(C)(C)CCC2=O`, the IC50 amounted to 32.2 µM in the assay on A549 and 16.7 µM with MCF7.
